From the OPERA property sets (Mansouri et al. 2018)

Details: not given

SMILES | boiling point [°C] | log10 vapour pressure (mmHg) | melting point [°C] | ready biodegradability | log10 Koc (L/kg) | log10 Henry constant (atm·m³/mol) | log10 Koa
C=COC=C | 28.3 | 2.83 | -101 |  |  |  | 
OCN(CO)c1nc(N(CO)CO)nc(N(CO)CO)n1 |  |  | 137 |  |  |  | 
CC(C)(C)c1cc(CCC(=O)OCC(COC(=O)CCc2cc(C(C)(C)C)c(O)c(C(C)(C)C)c2)(COC(=O)CCc2cc(C(C)(C)C)c(O)c(C(C)(C)C)c2)COC(=O)CCc2cc(C(C)(C)C)c(O)c(C(C)(C)C)c2)cc(C(C)(C)C)c1O |  |  |  | not readily biodegradable |  |  | 
C[C@]12CCC(=O)C=C1CC[C@@H]1[C@@H]2C(=O)C[C@@]2(C)[C@H]1CC[C@]2(O)C(=O)CO |  |  | 222 |  |  |  | 
O=C(Nc1ccc(Cl)c(Cl)c1)c1cc(Cl)cc(Cl)c1O |  |  | 161 |  |  |  | 
CN(C)CCCO | 164 |  |  |  |  |  | 
CCCCCCCCCC[C@H](O)CC |  |  | 32 |  |  |  | 
CCCCC(O)(CCCC)CCCC |  |  | 20 |  |  |  | 
CS(=O)(=O)Cl | 162 |  |  |  |  |  | 
CCCCCCCCCCc1ccccc1 | 298 | -2.89 | -14.4 |  |  |  | 
C[Si](C)(Cl)O[Si](C)(C)Cl | 138 |  | -37.5 |  |  |  | 
O=CCC(O)[C@H](O)CO (stereo in doubt) |  |  | 91 |  |  |  | 
O=C(O)CCCOc1ccc(Cl)cc1Cl | 324 |  | 118 |  |  |  | 
COc1ccc(Cl)nn1 |  |  | 84.5 |  |  |  | 
C=C(C)C(=O)OCC(C)O (configuration not stated) |  |  |  | readily biodegradable |  |  | 
CCC(=O)C(CC(C)N1CCOCC1)(c1ccccc1)c1ccccc1 (configuration not stated) |  |  | 75.5 |  |  |  | 
CCNc1nc(Cl)nc(N(CC)CC)n1 |  |  | 101 |  | 2.76 |  | 
CC(C)(C)C(=O)C(C)(C)C | 152 |  | -25.2 |  |  |  | 
CCCCC(CC)CNCC(CC)CCCC (configuration not stated) | 281 | -2 | -60 |  |  |  | 
Cc1cc(C(=O)O)ccc1N |  |  | 170 |  |  |  | 
C[C@]12C=CC(=O)C=C1[C@@H](F)C[C@@H]1[C@@H]2[C@@H](O)C[C@@]2(C)[C@H]1CC[C@]2(O)C(=O)CO |  |  | 210 |  |  |  | 

SMILES | boiling point [°C] | log10 vapour pressure (mmHg) | melting point [°C] | ready biodegradability | log10 Koc (L/kg) | log10 Henry constant (atm·m³/mol) | log10 Koa
CN(C)C(N)=O |  |  | 184 |  |  |  | 
CC1(C)OCC(CO)O1 (configuration not stated) |  | 2.03 |  |  |  |  | 
CNC(=O)c1ccccc1 | 291 |  | 82 |  | 1.68 |  | 
Nc1ccnc(N)c1 |  |  | 107 |  |  |  | 
COC(C)CCO (configuration not stated) | 157 |  |  | readily biodegradable |  |  | 
C#CC(C)Cl (configuration not stated) | 68.5 |  |  |  |  |  | 
CC(C)(C)C(=O)CCl | 172 |  | -13 |  |  |  | 
Cc1[nH]ncc1Br |  |  | 76.5 |  |  |  | 
O=[N+]([O-])c1cc(Cl)ccc1O |  |  | 88.5 | not readily biodegradable |  |  | 
OCCBr | 150 |  |  |  |  |  | 
c1ccc(CC2CCNCC2)cc1 | 270 |  | 16.8 |  |  |  | 
CN(C)C=Nc1c(I)cc(I)c(CCC(=O)O)c1I |  |  | 168 |  |  |  | 
CCC(=O)N(CC)CC | 191 |  |  |  |  |  | 
COc1ccc(C(=O)c2coc(S(N)(=O)=O)c2)cc1 |  |  | 181 |  |  |  | 
C=C(C)c1cc(=O)c(O)ccc1CC=C(C)C |  |  | 71.5 |  |  |  | 
Clc1ccc(-c2ccc(Cl)c(Cl)c2)cc1Cl |  | -4.78 |  |  |  | -5.03 | 9.7
COc1cc(O)c(C(=O)c2ccccc2)cc1S(=O)(=O)O |  |  | 145 |  |  |  | 
CC=CCCl | 80.7 | 1.84 |  |  |  |  | 
O=C1C=CC(=O)c2c(O)ccc(O)c21 |  |  | 232 |  |  |  | 
CC(C)OC(=O)C1(S(=O)(=O)c2ccc([N+](=O)[O-])cc2)CC1 |  |  | 123 |  |  |  | 
C[C@@]12C(=O)OC(=O)[C@]1(C)C1CCC2O1 |  |  | 218 |  |  |  | 

SMILES | boiling point [°C] | log10 vapour pressure (mmHg) | melting point [°C] | ready biodegradability | log10 Koc (L/kg) | log10 Henry constant (atm·m³/mol) | log10 Koa
O=C(CCCN1CCC(n2c(=O)[nH]c3ccccc32)CC1)c1ccc(F)cc1 |  |  | 171 |  |  |  | 
O=S(c1ccccc1)c1ccccc1 |  |  | 71.2 |  |  |  | 
CC(C)c1cc(C(C)C)cc(C(C)C)c1 | 238 |  | -7.4 |  |  |  | 
C=CC(=O)O | 141 | 0.599 | 13.5 | readily biodegradable |  |  | 
BrCC(Br)Br | 189 |  | -29.3 |  |  |  | 
NCc1ccc(Br)cc1 | 250 |  | 20 |  |  |  | 
c1ccc(Cc2ccc(-c3ccccc3)cc2)cc1 |  |  | 85 |  |  |  | 
CC(C)C(C)(C)C(C)(C)C | 166 |  | -36.4 |  |  |  | 
c1ccc2cc(Oc3ccc4ccccc4c3)ccc2c1 |  |  | 105 |  |  |  | 
Cc1cccc(O)c1[N+](=O)[O-] |  | -1.43 | 37 |  |  | -5.51 | 
O=C(O)c1cnc(O)nc1O |  |  | 283 |  |  |  | 
C=C(C)c1ccc(O)cc1 |  |  |  | not readily biodegradable |  |  | 
Cc1cc(O)ccc1[N+](=O)[O-] |  |  | 128 | not readily biodegradable |  | -7.79 | 
CC[C@](C)(N)C(=O)O (racemic) |  |  | 316 |  |  |  | 
CC(=O)c1cnccn1 |  |  | 77 |  |  |  | 
CCOC(=O)NNC(=O)OCC |  |  | 135 |  |  |  | 
Clc1cc(Cl)c2c(oc3c(Cl)cccc32)c1Cl |  |  | 177 |  |  |  | 
c1ccc2cc3cc4cc5ccccc5cc4cc3cc2c1 |  |  | 257 | not readily biodegradable |  |  | 
CC(=O)[C@H]1CC[C@H]2[C@@H]3CC[C@H]4C[C@H](N)CC[C@]4(C)[C@H]3CC[C@]12C |  |  | 126 |  |  |  | 
Cc1ccc(C(C)(C)C)c(O)c1 |  |  | 46.5 | not readily biodegradable |  |  | 
COc1c(Cl)c(C)c2c(c1Cl)OC(=O)c1c(C)c(Cl)c(O)c(Cl)c1O2 |  |  | 232 |  |  |  | 

Same assay, conditions: fish

SMILES | log10 BCF | log10 biotransformation half-life (days)
O=[N+]([O-])c1ccc(O)c([N+](=O)[O-])c1 | 0.57 | 
Clc1cc(Cl)c(Cl)c(-c2c(Cl)c(Cl)cc(Cl)c2Cl)c1Cl | 5.82 | 
Nc1c(Oc2ccc(Br)cc2)cc(O)c2c1C(=O)c1ccccc1C2=O | 2.05 | 
CCCCCCCCCCc1ccccc1 |  | 0.63
Clc1ccc(-c2ccc(Cl)c(Cl)c2)cc1Cl | 4.62 | 1.35
Cc1cc(O)ccc1[N+](=O)[O-] | 1.06 | 
